Measured values published in paper PMC8246065 (The EMBO Journal, 2021).

Tests used:
[1] = tested on: HeLa inducible NOD1 or NOD2 cells; assay: ELISA of IL6/IL8 in supernatants of HeLa inducible NOD1 or NOD2 cells; type: cell-based, human; conditions: for Effect of inhibitor on IL6 production by cytosolic S1P: inhibitor pretreatment, S1P 10 µM with digitonin (5 µg/ml), Appendix Fig S3A-D; for IL6 production: lipid 10 µM, Appendix Fig S3E,F; for IL6 production in the presence of dynasore: Fig EV1D,E (S2B-S2E in rebuttal); for IL6 production upon stressor stimulation: Fig 1A-1D
Method: (§1) To differentiate THP‐1 into macrophage‐like cells, THP‐1 cells were stimulated with 50 ng/ml phorbol 12‐myristate 13‐acetate (Sigma‐Aldrich, P8139) for 24 h and then incubated with fresh medium for another 48 h. […] To induce NOD1 or NOD2 expression, HeLa NOD1 or NOD2 cells were treated with 0.5 µg/ml or 0.25 µg/ml doxycycline for at least 16 h, respectively. All cells have been checked for mycoplasma contamination regularly. Bone marrow‐derived macrophages (BMDMs) were obtained from tibial and femural bones and generated with DMEM containing 20% L929 cell supernatant, 10% FBS, 5% heat‐inactivated horse serum, 1 mM sodium pyruvate, and 2 mM L‐glutamine. For BMDM stimulation experiments, BMDMs were treated with IFN‐γ (20 ng/ml) overnight before stimulation.

[2] = target: T1, NOD1 (Homo sapiens, UniProt Q9Y239); assay: Microscale thermophoresis (MST) binding to purified NOD1-GFP
T1 sequence (Q9Y239 1-953): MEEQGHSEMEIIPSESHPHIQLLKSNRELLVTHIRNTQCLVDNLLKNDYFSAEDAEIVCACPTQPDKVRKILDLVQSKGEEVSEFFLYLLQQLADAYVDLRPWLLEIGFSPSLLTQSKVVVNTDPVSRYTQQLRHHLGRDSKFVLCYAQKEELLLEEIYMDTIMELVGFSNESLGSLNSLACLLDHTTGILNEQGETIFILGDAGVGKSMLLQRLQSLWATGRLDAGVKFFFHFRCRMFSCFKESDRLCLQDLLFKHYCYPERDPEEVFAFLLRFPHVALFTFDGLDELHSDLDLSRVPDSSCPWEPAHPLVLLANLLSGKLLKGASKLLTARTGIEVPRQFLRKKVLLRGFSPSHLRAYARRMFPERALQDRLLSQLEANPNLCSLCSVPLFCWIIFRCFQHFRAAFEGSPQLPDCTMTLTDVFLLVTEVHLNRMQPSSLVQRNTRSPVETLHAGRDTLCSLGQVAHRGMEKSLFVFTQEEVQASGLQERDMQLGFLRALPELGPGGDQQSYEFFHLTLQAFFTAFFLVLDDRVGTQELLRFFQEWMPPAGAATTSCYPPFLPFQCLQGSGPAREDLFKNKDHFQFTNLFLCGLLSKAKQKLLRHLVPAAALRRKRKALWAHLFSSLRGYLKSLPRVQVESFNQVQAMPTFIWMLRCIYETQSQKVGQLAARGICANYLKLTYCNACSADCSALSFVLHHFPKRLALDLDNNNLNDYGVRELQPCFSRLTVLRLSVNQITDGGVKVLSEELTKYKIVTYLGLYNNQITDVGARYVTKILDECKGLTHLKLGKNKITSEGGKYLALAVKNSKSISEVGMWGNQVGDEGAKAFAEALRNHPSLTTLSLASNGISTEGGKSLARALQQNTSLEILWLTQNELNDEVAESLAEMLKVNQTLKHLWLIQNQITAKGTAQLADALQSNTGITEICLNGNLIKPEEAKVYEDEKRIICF
Method: (§2) The lysates were incubated with 2 ml GFP‐Trap agarose at 4°C for 4 h. The agarose was collected with Poly‐Prep columns by gravity flow. […] To remove heat shock proteins, columns were further washed with 50 ml wash buffer III (50 mM Tris–HCl, pH 7.5, 150 mM NaCl, 5 mM MgCl2+, 1 mM ATP). To elute the proteins, the agarose was mixed with 2 ml elution buffer (100 mM Glycine, pH 2.5) for 1 min and the eluted proteins were immediately neutralized with 0.2 ml of 1 M Tris, pH 10.5.

[3] = target: NOD2 (Homo sapiens, UniProt Q9HC29); assay: Microscale thermophoresis (MST) binding to purified NOD2-GFP
Method: as §2

[4] = tested on: HEK293T NOD1/2 KO cells transfected with NOD1 or NOD2 mutants; assay: IL8 ELISA of HEK293T cells transfected with NOD1/NOD2 mutants; type: cell-based, human; conditions: for IL8 production in cells expressing LRR-deficient NOD1/2 (NOD1/2∆LRR): 20 µM with digitonin, 20 h
Method: as §1
The mutagenesis was performed with Q5® site‐directed mutagenesis kit (E0554, NEB) according to the manufacturer's instructions. The primers used in this study were as follows: NOD1 E157A F: 5′‐[…]gcg[…]‐3′, NOD1 E157A R: 5′‐[…]‐3′, NOD1 D161A F: 5′‐[…]gcg[…]‐3′, NOD1 D161A R: 5′‐[…]‐3′, NOD1 D203A F: 5′‐[…]gcg[…]‐3′, D203A R: 5′‐[…]‐3′, L218A F: 5′‐[…]gcg[…]‐3′, L218A R: 5′‐[…]‐3′, R237A F: 5′‐[…]gcg[…]‐3′, R237A R: 5′‐[…]‐3′, H257A F: 5′‐[…]gcg[…]‐3′, H257A R: 5′‐[…]‐3′, E267A F: 5′‐[…]gcg[…]‐3′, E267A R: 5′‐[…]‐3′, H290A F: 5′‐[…]gcg[…]‐3′, H290A R: 5′‐[…]‐3′, E306A F: 5′‐[…]gcg[…]‐3′, E306A R: 5′‐[…]‐3′, K324A F: 5′‐[…]gcg[…]‐3′, K324A R: 5′‐[…]‐3′, K328A F: 5′‐[…]gcg[…]‐3′, K328A R: 5′‐[…]‐3′, R340A F: 5′‐[…]gcg[…]‐3′, R340A R: 5′‐[…]‐3′, R344A F: 5′‐[…]gcg[…]‐3′, R344A R: 5′‐[…]‐3′, R350A F: 5′‐[…]gcg[…]‐3′, R350A R: 5′‐[…]‐3′, D372A F: 5′‐[…]gcg[…]‐3′, D372A R: 5′‐[…]‐3′, R373A F: 5′‐[…]gcg[…]‐3′, R373A R: 5′‐[…]‐3′, R399A F: 5′‐[…]gcg[…]‐3′, R399A R: 5′‐[…]‐3′, D423A F: 5′‐[…]gcg[…]‐3′, D423A R: 5′‐[…]‐3′, R435A F: 5′‐5′‐[…]gcg[…]‐3′, R435A R: 5′‐[…]‐3′, Q484A F: 5′‐[…]gcg[…]‐3′, Q484A R: 5′‐[…]‐3′, L495A F: 5′‐[…]gcg[…]‐3′, L495A R: 5′‐[…]‐3′, E514A F: 5′‐[…]gcg[…]‐3′, E514A R: 5′‐[…]‐3′, H517A F: 5′‐[…]gcg[…]‐3′, H517A R: 5′‐[…]‐3′, L540A F: 5′‐[…]gcg[…]‐3′, L540A R: 5′‐[…]‐3′, F544A F: 5′‐[…]gcg[…]‐3′, and F544A R: 5′‐[…]‐3′.

Chain of NOD2 (Q9HC29 whole entry): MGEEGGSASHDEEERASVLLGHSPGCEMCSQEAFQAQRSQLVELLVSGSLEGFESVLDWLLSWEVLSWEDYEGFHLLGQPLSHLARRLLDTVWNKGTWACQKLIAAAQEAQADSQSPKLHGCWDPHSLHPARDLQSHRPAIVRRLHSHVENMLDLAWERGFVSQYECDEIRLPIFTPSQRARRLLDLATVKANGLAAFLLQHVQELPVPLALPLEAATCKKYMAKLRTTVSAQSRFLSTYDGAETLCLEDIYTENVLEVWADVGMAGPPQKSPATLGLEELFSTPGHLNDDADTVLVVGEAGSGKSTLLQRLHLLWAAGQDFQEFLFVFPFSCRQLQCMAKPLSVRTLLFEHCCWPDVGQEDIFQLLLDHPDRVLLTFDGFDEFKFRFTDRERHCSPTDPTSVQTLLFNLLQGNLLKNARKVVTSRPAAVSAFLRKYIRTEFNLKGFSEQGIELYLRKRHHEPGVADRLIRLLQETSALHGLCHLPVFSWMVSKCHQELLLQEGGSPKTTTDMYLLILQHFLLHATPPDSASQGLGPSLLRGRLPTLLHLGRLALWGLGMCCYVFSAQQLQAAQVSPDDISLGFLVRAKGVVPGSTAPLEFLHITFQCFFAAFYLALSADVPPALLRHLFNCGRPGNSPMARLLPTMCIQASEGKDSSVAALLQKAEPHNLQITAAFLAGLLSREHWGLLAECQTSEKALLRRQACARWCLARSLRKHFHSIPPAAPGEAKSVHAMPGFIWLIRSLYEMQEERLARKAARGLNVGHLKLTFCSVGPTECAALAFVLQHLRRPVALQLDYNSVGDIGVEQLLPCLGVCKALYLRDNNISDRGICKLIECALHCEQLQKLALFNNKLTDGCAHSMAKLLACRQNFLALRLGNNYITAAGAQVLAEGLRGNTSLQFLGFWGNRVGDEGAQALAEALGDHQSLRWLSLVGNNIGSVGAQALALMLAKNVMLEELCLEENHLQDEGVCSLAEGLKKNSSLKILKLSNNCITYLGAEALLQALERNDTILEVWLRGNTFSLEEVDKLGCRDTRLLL

In the case of `CCCCCCc1cccc(NC(=O)[C@H](N)CCP(=O)(O)O)c1` [W146], the “Effect of inhibitor on IL6 production by cytosolic S1P” value (shortened to “Effect of inhibitor on IL6 production”) [1] is reported as “failed to block”.
For `CCCCCCCCCCCCC/C=C/[C@@H](O)[C@@H](N)CO` [sphingosine], the IL6 production [1] was “did not induce IL6 production”.
`CC(C)(C)S(=O)(=O)c1ccc2nccc(Nc3n[nH]c4ccc(F)cc34)c2c1` [GSK583] was tested, and the “Effect of inhibitor on IL6 production” value [1] was “abolished”.
For `C=C1[C@@H](C)[C@H]2[C@H](Cc3ccccc3)NC(=O)[C@]23[C@H](OC(C)=O)/C=C/[C@@](C)(O)C(=O)[C@@H](C)C/C=C/[C@H]3[C@@H]1O` [cytochalasin D], the “IL6 production in the presence of dynasore” value (shortened to “IL6 production … of dynasore”) ([1]; Dynasore 50 µM) was “higher IL6 production”.
In the case of pertussis toxin, the “Effect of inhibitor on IL6 production” value [1] is reported as “failed to block”.
`Cc1nn(C)c2nc(NNC(=O)Nc3c(Cl)cncc3Cl)cc(C(C)C)c12` [JTE013] was tested, and the “Effect of inhibitor on IL6 production” value [1] was “failed to block”.
In the case of `CCCCCCCCCCCCC/C=C/[C@@H](O)[C@H](CO)NC(C)=O` [C2 ceramide], the IL6 production [1] is reported as “did not induce IL6 production”.
`CCCCCCCCc1ccc(CCC(N)(CO)CO)cc1` [FTY720] was tested, and the “Effect of inhibitor on IL6 production” value [1] was “failed to block”.
`CCCCC[C@H](CC(=O)NO)C(=O)N[C@H](C(=O)N1CCC[C@H]1CO)C(C)C` [actinonin] was tested, and the “IL6 production … of dynasore” value ([1]; Dynasore 50 µM) was “higher IL6 production”.
With `CCCCCCCCc1cccc(NC(=O)[C@H](N)COP(=O)(O)O)c1` [VPC23019] the “Effect of inhibitor on IL6 production” value [1] was “failed to block”.
For `C[C@H]1CCC/C=C/[C@@H]2C[C@H](O)C[C@H]2[C@H](O)/C=C/C(=O)O1` [BFA, brefeldin A], the “IL6 production upon stressor stimulation” value [1] was “did not induce IL6 production”.
For `O=C(N/N=C/c1ccc(O)c(O)c1)c1cc2ccccc2cc1O` [Dynasore], the “Effect of endocytosis inhibition on IL6 production in response to stress stimulations” value ([1]; Dynasore 50 µM) was “not blocked”.
With `CC[C@@]1([C@@H]2O[C@@H]([C@H]3O[C@@](O)(CO)[C@H](C)C[C@@H]3C)C[C@@H]2C)CC[C@H]([C@]2(C)CC[C@]3(C[C@H](O)[C@@H](C)[C@@H]([C@@H](C)[C@@H](OC)[C@H](C)C(=O)O)O3)O2)O1` [monensin] the “IL6 production upon stressor stimulation” value [1] was “did not induce IL6 production”.
With `CC(=O)c1ncc([C@@H](O)[C@H](O)[C@H](O)CO)[nH]1` [THI] the “Effect of inhibitor on IL6 production” value [1] was “higher IL6 production”.
With `CCCCCCCCCCCCC/C=C/[C@@H](O)[C@H](CO)NC(=O)CCCCCCCCCCCCCCC` [C16 ceramide] the “Interaction with NOD1 by MST” value ([2]; Fig EV5B) was “not detected”, the “Interaction with NOD2 by MST” value ([3]; Fig EV5C) was “not detected” and the IL6 production [1] was “did not induce IL6 production”.
With `CC(=O)N[C@@H]1[C@@H](O[C@H](C)C(=O)N[C@@H](C)C(=O)N[C@H](CCC(=O)O)C(N)=O)[C@H](O)[C@@H](CO)O[C@H]1O` [MDP] the “IL8 production in cells expressing LRR-deficient NOD1/2 (NOD1/2∆LRR)” value [4] was “not”, the “IL8 production / activation in HEK293T cells expressing NOD2 1007fs” value ([4]; 20 µM, 48 h, digitonin) was “unresponsive” and the “Binding affinity of NOD2 for MDP in the presence or absence of S1P” value ([3]; Fig 6H, S1P 2 µM) was “not affected”. The “IL6 production … of dynasore” value ([1]; Dynasore 50 µM) was “impaired”.
`Cc1cc(CN)cc(C)c1NC(=O)c1ccc(-c2cc(Cl)ccc2Cl)o1` [CYM50358] was tested, and the “Effect of inhibitor on IL6 production” value [1] was “failed to block”.
For `N[C@H](CCC(=O)N[C@H](CCC[C@H](N)C(=O)O)C(=O)O)C(=O)O` [iE-DAP], the “IL8 production in cells expressing LRR-deficient NOD1/2 (NOD1/2∆LRR)” value [4] was “not”, the “Activation (IL8) of NOD1 K328A or H517A” value ([4]; Fig EV5H) was “activated” and the “Binding affinity of NOD1 for iE-DAP in the presence or absence of S1P” value ([2]; Fig 6G, S1P 2 µM) was “not affected”. For the same compound, the “IL6 production … of dynasore” value ([1]; Dynasore 50 µM) was “impaired”.
`CC(=O)O[C@H]1C(=O)[C@@]2(C)[C@H]([C@H](OC(=O)c3ccccc3)[C@]3(O)C[C@H](OC(=O)[C@H](O)[C@@H](NC(=O)c4ccccc4)c4ccccc4)C(C)=C1C3(C)C)[C@]1(OC(C)=O)CO[C@@H]1C[C@@H]2O` [paclitaxel] was tested, and the “IL6 production … of dynasore” value ([1]; Dynasore 50 µM) was “higher IL6 production”.
With `COC(=O)Nc1nc2ccc(C(=O)c3cccs3)cc2[nH]1` [nocodazole] the “IL6 production … of dynasore” value ([1]; Dynasore 50 µM) was “higher IL6 production”.
